Results as given in patent US6444217B1, “Drug delivery devices, and methods of use” (University of Washington, priority 2000, dated 2002).

Test system: 3T3-L1 adipocyte cells
Test: ability of released insulin to regulate 14C-deoxyglucose uptake
Format: cell-based
Details: 14C-deoxyglucose uptake by cultured 3T3-L1 adipocyte cells

Substance: insulin
- biological activity of released insulin: retains its biological activity
